Experimental data as given in US10597388B2, “Pyridazinone herbicides” (FMC CORPORATION, priority 2014, dated 2020).

Experiments:
Assay in all cases: Test D controlled growth environment herbicide test, pre- and postemergence
Format in all cases: in vivo
[1] = system: Russian thistle (Salsola kali)
How it was run: (§1)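 Species sown in silt loam and sprayed preemergence, or grown in peat-based medium to 2–18 cm (1- to 4-leaf stage) and sprayed postemergence, with compounds in non-phytotoxic solvent plus surfactant. Visual injury scored versus controls after 14–21 d in a controlled environment, 0 (no effect) to 100 (complete control).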

[2] = system: blackgrass (Alopecurus myosuroides)
How it was run: as §1

[3] = system: canarygrass (Phalaris minor)
How it was run: as §1

[4] = system: chickweed (common chickweed, Stellaria media)
How it was run: as §1

[5] = system: deadnettle (henbit deadnettle, Lamium amplexicaule)
How it was run: as §1

[6] = system: field violet (Viola arvensis)
How it was run: as §1

[7] = system: foxtail, green (green foxtail, Setaria viridis)
How it was run: as §1

kochia (Kochia scoparia) = system: kochia (Kochia scoparia)
How it was run: as §1

[8] = system: lambsquarters (Chenopodium album)
How it was run: as §1

[9] = system: ryegrass, Italian (Italian ryegrass, Lolium multiflorum)
How it was run: as §1

[10] = system: wheat, spring (spring wheat, Triticum aestivum)
How it was run: as §1

[11] = system: wheat, winter (winter wheat, Triticum aestivum)
How it was run: as §1

[12] = system: windgrass (Apera spica-venti)
How it was run: as §1

[13] = Postemergence, 31 g ai/ha, scale 0 to 100 (0 no effect, 100 complete control)
[14] = Postemergence, 125 g ai/ha, visual rating on scale 0 (no effect) to 100 (complete control), 14 to 21 d
[15] = Postemergence, 250 g ai/ha, scale 0 to 100 (0 no effect, 100 complete control)
[16] = Preemergence, 125 g ai/ha, scale 0 to 100 (0 no effect, 100 complete control)
[17] = Preemergence, 250 g ai/ha, scale 0 to 100 (0 no effect, 100 complete control)
[18] = postemergence, 62 g ai/ha, scale 0 to 100, 0 no effect, 100 complete control

CC(=O)Oc1c(C)nn(C)c(=O)c1-c1c(C)cc(C)c2ccccc12 [Compound 153]
25: Russian Thistle plant response rating [1, 13] | Plant response rating, Kochia (kochia (Kochia scoparia); [16]) | Plant response rating (scale of 0 to 100), Wheat, Spring ([10]; Preemergence, 31 g ai/ha) | Plant response rating, Wheat, Winter [11, 14] | Windgrass plant response rating [12, 13]
55: Plant response rating, Russian Thistle [1, 15]
70: Plant response rating, Blackgrass [2, 18] | Deadnettle plant response rating [5, 13] | Plant response rating, Kochia (kochia (Kochia scoparia); [17]) | Plant response rating (scale of 0 to 100), Lambsquarters ([8]; Preemergence, 31 g ai/ha) | Plant response rating, Wheat, Spring [10, 16]
85: Plant response rating, Blackgrass [2, 16] | Plant response rating, Canarygrass [3, 15] | Plant response rating (scale of 0 to 100), Canarygrass ([3]; Preemergence, 31 g ai/ha) | Plant response rating, Chickweed [4, 14] | Plant response rating, Chickweed [4, 18] | Field Violet plant response rating [6, 13] | Plant response rating, Foxtail, Green [7, 14] | Plant response rating, Foxtail, Green [7, 15] | Plant response rating (scale of 0 to 100), Lambsquarters ([8]; Preemergence, 62 g ai/ha) | Plant response rating, Wheat, Spring [10, 17]
0: Plant response rating (scale of 0 to 100), Russian Thistle ([1]; Preemergence, 31 g ai/ha)
15: Plant response rating (scale of 0 to 100), Russian Thistle ([1]; Preemergence, 62 g ai/ha) | Plant response rating, Kochia (kochia (Kochia scoparia); [18]) | Plant response rating, Wheat, Winter [11, 18]
10: Wheat, Winter plant response rating [11, 13]
40: Plant response rating, Wheat, Spring [10, 14]
50: Plant response rating (scale of 0 to 100), Kochia (kochia (Kochia scoparia); Preemergence, 62 g ai/ha) | Plant response rating, Wheat, Spring [10, 15] | Plant response rating, Wheat, Winter [11, 17]
45: Plant response rating, Russian Thistle [1, 14] | Plant response rating (scale of 0 to 100), Wheat, Spring ([10]; Preemergence, 62 g ai/ha) | Plant response rating, Wheat, Winter [11, 16]
75: Plant response rating, Blackgrass [2, 14] | Plant response rating (scale of 0 to 100), Blackgrass ([2]; Preemergence, 31 g ai/ha) | Canarygrass plant response rating [3, 13] | Plant response rating, Canarygrass [3, 18] | Plant response rating, Deadnettle [5, 18] | Plant response rating (scale of 0 to 100), Foxtail, Green ([7]; Preemergence, 31 g ai/ha) | Plant response rating (scale of 0 to 100), Foxtail, Green ([7]; Preemergence, 62 g ai/ha) | Lambsquarters plant response rating [8, 13] | Plant response rating, Lambsquarters [8, 15] | Plant response rating, Windgrass [12, 15] | Plant response rating (scale of 0 to 100), Windgrass ([12]; Preemergence, 31 g ai/ha)
65: Blackgrass plant response rating [2, 13] | Plant response rating, Lambsquarters [8, 14] | Plant response rating, Lambsquarters [8, 18] | Plant response rating, Windgrass [12, 14]
35: Plant response rating, Kochia (kochia (Kochia scoparia); [15]) | Plant response rating, Wheat, Winter [11, 15]
98: Plant response rating (scale of 0 to 100), Chickweed ([4]; Preemergence, 31 g ai/ha) | Plant response rating (scale of 0 to 100), Deadnettle ([5]; Preemergence, 31 g ai/ha)
30: Plant response rating, Kochia (kochia (Kochia scoparia); [14]) | Plant response rating, Wheat, Spring [10, 18] | Plant response rating, Windgrass [12, 18]
5: Plant response rating (scale of 0 to 100), Wheat, Winter ([11]; Preemergence, 31 g ai/ha)
60: Plant response rating, Russian Thistle [1, 16]
80: Plant response rating, Blackgrass [2, 15] | Plant response rating, Blackgrass ([2]; Preemergence, 62 g ai/ha, scale 0 to 100 (0 no effect, 100 complete control)) | Plant response rating, Canarygrass [3, 14] | Chickweed plant response rating [4, 13] | Plant response rating, Deadnettle [5, 14] | Foxtail, Green plant response rating [7, 13] | Plant response rating, Foxtail, Green [7, 18] | Ryegrass, Italian plant response rating [9, 13] | Plant response rating (scale of 0 to 100), Windgrass ([12]; Preemergence, 62 g ai/ha) | Plant response rating, Windgrass [12, 16]
100: Plant response rating, Russian Thistle [1, 17] | Plant response rating, Canarygrass [3, 17] | Plant response rating, Chickweed [4, 15] | Plant response rating (scale of 0 to 100), Chickweed ([4]; Preemergence, 62 g ai/ha) | Plant response rating, Chickweed [4, 16] | Plant response rating, Chickweed [4, 17] | Plant response rating (scale of 0 to 100), Deadnettle ([5]; Preemergence, 62 g ai/ha) | Plant response rating, Deadnettle [5, 16] | Plant response rating, Deadnettle [5, 17] | Plant response rating, Field Violet [6, 15] | Plant response rating (scale of 0 to 100), Field Violet ([6]; Preemergence, 31 g ai/ha) | Plant response rating (scale of 0 to 100), Field Violet ([6]; Preemergence, 62 g ai/ha) | Plant response rating, Field Violet [6, 16] | Plant response rating, Field Violet [6, 17] | Plant response rating, Foxtail, Green [7, 16] | Plant response rating, Foxtail, Green [7, 17] | Plant response rating, Lambsquarters [8, 16] | Plant response rating, Lambsquarters [8, 17] | Plant response rating (scale of 0 to 100), Ryegrass, Italian ([9]; Preemergence, 31 g ai/ha) | Plant response rating (scale of 0 to 100), Ryegrass, Italian ([9]; Preemergence, 62 g ai/ha) | Plant response rating, Ryegrass, Italian [9, 16] | Plant response rating, Ryegrass, Italian [9, 17]
20: Plant response rating, Russian Thistle [1, 18] | Kochia plant response rating (kochia (Kochia scoparia); [13]) | Plant response rating (scale of 0 to 100), Kochia (kochia (Kochia scoparia); Preemergence, 31 g ai/ha) | Wheat, Spring plant response rating [10, 13] | Plant response rating (scale of 0 to 100), Wheat, Winter ([11]; Preemergence, 62 g ai/ha)
95: Plant response rating, Blackgrass [2, 17] | Plant response rating, Canarygrass [3, 16] | Plant response rating, Field Violet [6, 14] | Plant response rating, Windgrass [12, 17]
90: Plant response rating (scale of 0 to 100), Canarygrass ([3]; Preemergence, 62 g ai/ha) | Plant response rating, Deadnettle [5, 15] | Plant response rating, Field Violet [6, 18] | Plant response rating, Ryegrass, Italian [9, 14] | Plant response rating, Ryegrass, Italian [9, 15] | Plant response rating, Ryegrass, Italian [9, 18]
